Test results published in patent publication US20250151724A1, “Liquid Soil Treatments Containing Choline” (Harrell's, LLC, priority 2023, published 2025).

System: creeping bentgrass
Experiment: Experiment No. 1: growth chamber pot trial, foliar GB and choline under heat and mild drought stress
Type: in vivo
Conditions: for Root Viability: TTC method
Experimental: A growth chamber pot trial was conducted as follows. […] The choline used in this study was supplied in the form of choline chloride from Sigma-Aldrich, Inc. (St. Louis, MO). […] These conditions simulated summer putting green stress. The treatments were as follows: • 1. […] GB at 0.5 oz./1,000 ft^2 every 14 days. • 3. GB at 1.0 oz./1,000 ft^2 every 14 days. • 4. […] The rate and source of fertilization for treatments #2-7 was the same as treatment #1 (fertilized control), so all seven treatments received identical fertility input. […] The term “low rate” is used in this description of Experiment No. 1 to refer to 0.5 oz./1,000 ft^2 treatments, while the term “high rate” is used to refer to 1.0 oz./1,000 ft^2 treatments. […] Photochemical efficiency (PE). Photochemical Efficiency was measured with a chlorophyll fluorometer (OS-50II, Opti-Sciences, Inc., Hudson, NH) biweekly based on the Fv/Fm, which is the ratio of variable chlorophyll fluorescence (Fv) to maximum chlorophyll fluorescence (Fm). […] Chlorophyll content. After clipping yields were weighed, leaf tissues were ground into powder, and chlorophyll was extracted in pure acetone content for 72 hours, and the absorbance was measured using a spectrophotometer. • e. Leaf carotenoids were extracted in the same sample as for chlorophyll content and carotenoids were measured using a spectrophotometer (Zhang et al., 2005). • f. Leaf proline content. […] After centrifuging, the supernatant was collected, and proline was analyzed according to Wu et al., 2017. • g. Root viability. […] Root growth characteristics. At the end of trial, roots from each pot were washed and cleaned. Roots were scanned using WinRHIZOTM technology (Regent Instruments Inc., Quebec, Canada), and root length, root surface area, root diameter, and root volume were calculated. (Zhang et al., 2017). • i. Root biomass of each pot was determined at the end of the trial. Roots were dried at 65° C. for 72 hours before being weighed.

In the case of `C[N+](C)(C)CC(=O)[O-]` [GB, Glycine betaine, reference compound], the Clippings dry wt (0.5 oz/1000 ft^2, Total) is reported as 0.686bc g/pot, the Carotenoids (0.5 oz/1000 ft^2, day 0) is reported as 1.31a mg/g FW and the Chlorophyll (0.5 oz/1000 ft^2, day 0) is reported as 3.43a mg/g FW. For the same compound, the “Leaf color (1-9, 9 = dark green)” value (0.5 oz/1000 ft^2, day 0) was 7.5a, the “PE (Fv/Fm)” value (0.5 oz/1000 ft^2, day 0) was 0.777a and the Proline (0.5 oz/1000 ft^2, day 0) was 19.0a mg/g FW. The Carotenoids (0.5 oz/1000 ft^2, day 14) was 1.31a mg/g FW, the Chlorophyll (0.5 oz/1000 ft^2, day 14) was 3.44a mg/g FW and the Clippings dry wt (0.5 oz/1000 ft^2, day 14) was 0.159ab g/pot. For the same compound, the “Leaf color (1-9, 9 = dark green)” value (0.5 oz/1000 ft^2, day 14) was 7.1bc, the “PE (Fv/Fm)” value (0.5 oz/1000 ft^2, day 14) was 0.744ab and the Proline (0.5 oz/1000 ft^2, day 14) was 21.2bc mg/g FW. It also gave a Carotenoids (0.5 oz/1000 ft^2, day 28) of 1.00ab mg/g FW, a Chlorophyll (0.5 oz/1000 ft^2, day 28) of 2.89abc mg/g FW and a Clippings dry wt (0.5 oz/1000 ft^2, day 28) of 0.143b g/pot. The “Leaf color (1-9, 9 = dark green)” value (0.5 oz/1000 ft^2, day 28) was 6.3b, the “PE (Fv/Fm)” value (0.5 oz/1000 ft^2, day 28) was 0.676ab and the Proline (0.5 oz/1000 ft^2, day 28) was 35.1a mg/g FW. It also gave a Carotenoids (0.5 oz/1000 ft^2, day 42) of 1.13a mg/g FW, a Chlorophyll (0.5 oz/1000 ft^2, day 42) of 2.80ab mg/g FW and a Clippings dry wt (0.5 oz/1000 ft^2, day 42) of 0.152a g/pot. The “Leaf color (1-9, 9 = dark green)” value (0.5 oz/1000 ft^2, day 42) was 6.9ab, the “PE (Fv/Fm)” value (0.5 oz/1000 ft^2, day 42) was 0.668ab and the Proline (0.5 oz/1000 ft^2, day 42) was 34.9bc mg/g FW. It also gave a Carotenoids (0.5 oz/1000 ft^2, day 56) of 1.08ab mg/g FW, a Chlorophyll (0.5 oz/1000 ft^2, day 56) of 2.63abc mg/g FW and a Clippings dry wt (0.5 oz/1000 ft^2, day 56) of 0.233ab g/pot. The “Leaf color (1-9, 9 = dark green)” value (0.5 oz/1000 ft^2, day 56) was 6.3bc, the “PE (Fv/Fm)” value (0.5 oz/1000 ft^2, day 56) was 0.646ab and the Proline (0.5 oz/1000 ft^2, day 56) was 62.9ab mg/g FW. The “Root Biomass” value (0.5 oz/1000 ft^2, end of trial) was 1.34b g/pot, the “Root Diameter” value (0.5 oz/1000 ft^2, end of trial) was 0.189ab mm and the “Root Length” value (0.5 oz/1000 ft^2, end of trial) was 33.1b mm/cm^3. The “Root Volume” value (0.5 oz/1000 ft^2, end of trial) was 9.6a dm^3/cm^3, the “Root Viability” value (0.5 oz/1000 ft^2, end of trial) was 0.877abcd A490/g FW and the Clippings dry wt (1.0 oz/1000 ft^2, Total) was 0.876a g/pot. The Carotenoids (1.0 oz/1000 ft^2, day 0) was 1.30a mg/g FW, the Chlorophyll (1.0 oz/1000 ft^2, day 0) was 3.42a mg/g FW and the “Leaf color (1-9, 9 = dark green)” value (1.0 oz/1000 ft^2, day 0) was 7.5a. For the same compound, the “PE (Fv/Fm)” value (1.0 oz/1000 ft^2, day 0) was 0.743a, the Proline (1.0 oz/1000 ft^2, day 0) was 18.6a mg/g FW and the Carotenoids (1.0 oz/1000 ft^2, day 14) was 1.31a mg/g FW. The Chlorophyll (1.0 oz/1000 ft^2, day 14) was 3.43a mg/g FW, the Clippings dry wt (1.0 oz/1000 ft^2, day 14) was 0.211a g/pot and the “Leaf color (1-9, 9 = dark green)” value (1.0 oz/1000 ft^2, day 14) was 7.3abc. For the same compound, the “PE (Fv/Fm)” value (1.0 oz/1000 ft^2, day 14) was 0.765a, the Proline (1.0 oz/1000 ft^2, day 14) was 21.6bc mg/g FW and the Carotenoids (1.0 oz/1000 ft^2, day 28) was 1.02b mg/g FW. For the same compound, the Chlorophyll (1.0 oz/1000 ft^2, day 28) was 2.71bc mg/g FW, the Clippings dry wt (1.0 oz/1000 ft^2, day 28) was 0.225a g/pot and the “Leaf color (1-9, 9 = dark green)” value (1.0 oz/1000 ft^2, day 28) was 7.0a. For the same compound, the “PE (Fv/Fm)” value (1.0 oz/1000 ft^2, day 28) was 0.715ab, the Proline (1.0 oz/1000 ft^2, day 28) was 25.8b mg/g FW and the Carotenoids (1.0 oz/1000 ft^2, day 42) was 0.99ab mg/g FW. For the same compound, the Chlorophyll (1.0 oz/1000 ft^2, day 42) was 2.47ab mg/g FW, the Clippings dry wt (1.0 oz/1000 ft^2, day 42) was 0.189a g/pot and the “Leaf color (1-9, 9 = dark green)” value (1.0 oz/1000 ft^2, day 42) was 6.5b. For the same compound, the “PE (Fv/Fm)” value (1.0 oz/1000 ft^2, day 42) was 0.673ab, the Proline (1.0 oz/1000 ft^2, day 42) was 38.9abc mg/g FW and the Carotenoids (1.0 oz/1000 ft^2, day 56) was 0.96ab mg/g FW. The Chlorophyll (1.0 oz/1000 ft^2, day 56) was 2.55bc mg/g FW, the Clippings dry wt (1.0 oz/1000 ft^2, day 56) was 0.252a g/pot and the “Leaf color (1-9, 9 = dark green)” value (1.0 oz/1000 ft^2, day 56) was 6.4abc. The “PE (Fv/Fm)” value (1.0 oz/1000 ft^2, day 56) was 0.651a, the Proline (1.0 oz/1000 ft^2, day 56) was 68.5a mg/g FW and the “Root Biomass” value (1 oz/1000 ft^2, end of trial) was 1.64ab g/pot. For the same compound, the “Root Diameter” value (1 oz/1000 ft^2, end of trial) was 0.174b mm, the “Root Length” value (1 oz/1000 ft^2, end of trial) was 40.3ab mm/cm^3 and the “Root Volume” value (1 oz/1000 ft^2, end of trial) was 9.7a dm^3/cm^3. The “Root Viability” value (1 oz/1000 ft^2, end of trial) was 1.076ab A490/g FW.
